These are literature values, as cited in patent US12091391B2, “Reagents and methods for bioorthogonal labeling of biomolecules in living cells” (Oregon State University, priority 2015, dated 2024).

Regarding “cyclopropane-fused trans cyclooctene [sTCO]”, the half-life in vivo is 16.1 h.
